Here are results for 2 compounds from patent US4914086A, “Method for treating African human and veterinary trypanosomiases” (priority 1987, dated 1990).

The test relates to T. b. brucei LUMP 1001. The experiment in a line: CNS model, T. b. brucei LUMP 1001 infection in mice (Table 5). It is filed as in vivo, Trypanosoma brucei brucei (in Swiss-Webster mice). The settings on record: for efficacy in CNS model in words: LUMP 1001. An excerpt: T. b. brucei EATRO 110 isolate was maintained as described (Bacchi, C. J., H. C. Nathan, S. H. Hutner, P. P. McCann and A. Sjoerdsma; Polyamine metabolism: a potential chemotherapeutic target in trypanosomes. Science 210: 332-334, 1980). It produces an acute, rapidly fatal parasitemia which is lethal to mice 3-5 days after inoculation. Two T. B. brucei strains, TREU 667 and LUMP 1001 developed by Jennings and coworkers (Jennings, F. W., D. D. Whitelaw and G. M. Urquhart; The relationship between duration of infection with Trypanosoma brucei in mice and the efficacy of chemotherapy. Parasitology 75: 143-153, 1977/Jennings, F. W. and G. D. Gray; Relapsed parasitemia following chemotherapy of chronic T. brucei infections in mice and its relation to cerebral trypanosomes; Contr. Microbiol. Immunol. 7 147-154, 1983) were used as CNS models. Both produce infections which are refractory to Berenil® (diminazene aceturate) and develop within 21 days after inoculation. They are not usually fatal until >40 days after inoculation. LUMP 1001 causes a more virulent CNS infection than TREU 667, and is regarded as more difficult to cure (Jennings, F. W. and G. D. Gray. Relapsed parasitemia following chemotherapy of chronic T. brucei infections in mice and its relation to cerebral trypanosomes. Contr. Microbiol. Immunol. 7 147-154, 1983).
The models for […] nervous system infections used TREU 667 and LUMP 1001 strains which were stored frozen and passaged once in rats before infection of mice. Maintenance and use of these screens were as described (Clarkson, A. B. Jr., C. J. Bacchi, G. H. Mellon, H. C. Nathan, P. P. McCann and A. Sjoerdsma. Efficacy of DFMO+blemoycin in a mouse model of central nervous system African trypanosomiasis. Proc. Natl. Acad. Sci. USA. 80: 5729-5733, 1983/Clarkson, A. B. Jr., E. J. Biene, C. J. Bacchi, P. P. McCann, S. H. Hutner and A. Sjoerdsma. New drug combination for experimental late stage African trypanosomiasis: DFMO with suramin. Am. J. Trop. Med. Hyg. 33: 1073-1077, 1984/Dube, D. K., G. Mpimbaza, A. C. Allison, E. Lederer and L. Rovis. Antitrypanosomal activity of sinefungin, Am. J. Trop. Med. Hyg. 32: 31-33, 1983/Fish, W. R., J. J. Marr, R. L. Berens, D. L. Looker, D. J. Nelson, S. LaFon and A. E. Balber. Inosine analogs as chemotherapeutic agents for African trypanosomes: metabolism in trypanosomes and efficacy in tissue culture. Anti-microb. Ag. Chemother. 27: 33-36, 1985/Clazer, R. I., and L. S. Lloyd. Effects of 8-azaadenosine and formycin on cell lethality and the synthesis and methylation of nucleic acids in human colon carcinoma cells in culture. Biochem. Pharmacol. 31: 3207-3214, 1982/Bacchi, C. J., H. C. Nathan, A. B. Clarkson, Jr., E. J. Bienen, A. J. Bitonti, P. P. McCann and A. Sjoerdsma. Activity of the ornithine decarboxylase inhibitors DL-α-difluoromethylornithine and monofluormethyldehydroornithine methylester alone and in combination with suramin against Trypanosoma brucei brucei central nervous system models, Am. J. Trop. Med. Hyg. (in press)). Briefly, groups of 100-120 mice were infected and the infections allowed to develop until day 21, when the animals were separated into groups of 10 and therapy commenced. Controls were treated with Berenil (40 mg/kg) on day 21. […] Parasitemia was followed by examining tail vein blood smears once weekly. Animals which had relapsed were removed from cages.

Take `Nc1ncnc2c1ncn2[C@@H]1O[C@H](C[C@@H](N)CC[C@H](N)C(=O)O)[C@@H](O)[C@H]1O` [Sinefungin, 6,9-Diamino-1-(6-amino-9H-purin-9-yl)-1,5,6,7,8,9-hexadeoxy-beta-D-ribo-decofuranuronic acid]: the “efficacy in CNS model in words” value is “did not produce complete cures”. Further, where the note is “2.5 mg/kg i.p., 3 days”, the “# Cured/Total” value is listed as 0/10, the “% Cured” value worked out at 0% and the “Avg. Day of Relapse (Range)” value is 35 days. For the setting “5 mg/kg i.p., 3 days”, the “# Cured/Total” value is reported as 0/10, the “% Cured” value amounted to 0% and the “Avg. Day of Relapse (Range)” value was found to be 35 days. Also, where the note is “10 mg/kg i.p., 3 days”, the “# Cured/Total” value is 0/10, the “% Cured” value is recorded as 0% and the “Avg. Day of Relapse (Range)” value is given as 39 (35-71) Day.

In the case of `O=c1[nH]cnc2c([C@@H]3O[C@H](CO)[C@@H](O)[C@H]3O)c[nH]c12` [9-DINO, 7-beta-D-ribofuranosyl-4-oxo-3H, 5H-pyrrolo (3,2-d) pyrimidine], the “efficacy in CNS model in words” value is listed as “did not cure CNS infections”. Where the note is “50 mg/kg i.p., 7 days”, the “# Cured/Total” value is given as 0/10, the “% Cured” value was 0% and the “Avg. Day of Relapse (Range)” value is 36 (35-44) Day. In addition, where the note is “100 mg/kg i.p., 7 days”, the “# Cured/Total” value is on record as 0/9, the “% Cured” value is listed as 0% and the “Avg. Day of Relapse (Range)” value is 38 (35-44) Day. Under “250 mg/kg i.p., 7 days”, the “# Cured/Total” value is listed as 0/10, the “% Cured” value is on record as 0% and the “Avg. Day of Relapse (Range)” value was 49 (35-63) Day.
